# What was measured:
# Zika virus = assay: Functional CPE-based assay to measure dose dependent changes in antiviral-drug inhibitory efficacy against Zika virus MR766 in Vero E6 miRFP670 cells (cotreated with P-gp inhibitor, CP100356). Cells are treated with antiviral candidates that are serially diluted. EC50 is reported via analysis of MTS assay as a readout of CPE. The assay has been performed by KU Leuven.; assay type: organism-based, Chlorocebus sabaeus, Vero C1008; details: Zika virus; for EC90: P-gp concentration 500 nM, P-gp inhibitor CP100356
# dengue virus type 2 = assay: Functional assay to measure dose dependent changes in antiviral-drug inhibitory efficacy against Dengue virus type 2 New Guinea C in Vero E6 miRFP670 cells (cotreated with P-gp inhibitor, CP100356). Cells are treated with antiviral candidates that are serially diluted, following infection, cells are fixed. EC50 is reported via analysis of fluorescence intensity using high-content imager. The …; assay type: organism-based, Chlorocebus sabaeus, Vero C1008; details: for EC90: P-gp concentration 500 nM, P-gp inhibitor CP100356
smiles,measurement,setting,value
O=C(O)Cc1c[nH]c2cc(-c3cc(Cl)cc(NC(=O)OCc4ccccc4)c3)ccc12,EC50,Zika virus; Vero C1008,> 50 µM
same,EC90,"Zika virus; Vero C1008, Baseline response 0 %, Hill slope 0.295, Maximum measured 15.391 %, Maximum response 100 %, Minimum measured 1.73 %, R squared 0.19",> 50 µM
same,EC50,"dengue virus type 2; Dengue virus, Vero C1008",28.1 µM
same,EC90,"dengue virus type 2; Dengue virus, Vero C1008, Baseline response 0 %, Hill slope -3.369, Maximum measured 96.537 %, Maximum response 100 %, Minimum measured 12.115 %, R squared 0.802",> 50 µM
O=C(Nc1cc(Cl)cc(-c2cnn(Cc3ccc(C(=O)O)cc3)c2)c1)OCc1ccccc1,EC50,Zika virus; Vero C1008,> 50 µM
same,EC90,"Zika virus; Vero C1008, Baseline response 0 %, Hill slope 1.126, Maximum measured 43.56 %, Maximum response 100 %, Minimum measured -3.769 %, R squared 0.488",> 50 µM
same,EC50,"dengue virus type 2; Dengue virus, Vero C1008",25 µM
same,EC90,"dengue virus type 2; Dengue virus, Vero C1008, Baseline response 0 %, Hill slope -21.178, Maximum measured 148.823 %, Maximum response 100 %, Minimum measured 10.822 %, R squared 0.564",27.8 µM
FC(F)(F)Oc1cc(Cl)cc2c(Cc3ccc(-c4nnn[nH]4)cc3)c[nH]c12,EC50,Zika virus; Vero C1008,20.6 µM
same,EC90,"Zika virus; Vero C1008, Baseline response 0 %, Hill slope 5.381, Maximum measured 73.735 %, Maximum response 100 %, Minimum measured 0.486 %, R squared 0.994",> 25 µM
same,EC50,"dengue virus type 2; Dengue virus, Vero C1008",11.9 µM
same,EC90,"dengue virus type 2; Dengue virus, Vero C1008, Baseline response 0 %, Hill slope -33.999, Maximum measured 142.465 %, Maximum response 100 %, Minimum measured 16.781 %, R squared 0.605",> 12.5 µM
Clc1cc(CNc2ccc3c(c2)CNC3)c2cn[nH]c2c1,EC50,Zika virus; Vero C1008,17.9 µM
same,EC90,"Zika virus; Vero C1008, Baseline response 0 %, Hill slope 3.353, Maximum measured 76.866 %, Maximum response 100 %, Minimum measured 0.884 %, R squared 0.96",> 25 µM
same,EC50,"dengue virus type 2; Dengue virus, Vero C1008",3.18 µM
same,EC90,"dengue virus type 2; Dengue virus, Vero C1008, Baseline response 0 %, Hill slope -0.438, Maximum measured 74.942 %, Maximum response 100 %, Minimum measured 39.794 %, R squared 0.558",> 12.5 µM
COC(=O)c1cc(Br)cc2c(Cc3ccc(-c4nnn[nH]4)cc3)c[nH]c12,EC50,Zika virus; Vero C1008,> 50 µM
same,EC90,"Zika virus; Vero C1008, Baseline response 0 %, Hill slope 0.557, Maximum measured 36.25 %, Maximum response 100 %, Minimum measured -2.518 %, R squared 0.117",> 50 µM
same,EC50,"dengue virus type 2; Dengue virus, Vero C1008",> 50 µM
same,EC90,"dengue virus type 2; Dengue virus, Vero C1008, Maximum measured 157.502 %, Minimum measured 51.504 %",> 50 µM
CN(c1ccc2c(c1)CNC2)[C@H](C(=O)NCC(F)F)c1cc(Cl)cc(C2CC2)c1,EC50,Zika virus; Vero C1008,0.859 µM
same,EC90,"Zika virus; Vero C1008, Baseline response 0 %, EC90 CI (lower) 0.179 uM, EC90 CI (upper) 7.248 uM, Hill slope 7.833, Maximum measured 121.708 %, Maximum response 100 %, Minimum measured 8.623 %, R squared 0.915",1.14 µM
same,EC50,"dengue virus type 2; Dengue virus, Vero C1008",> 3.12 µM
same,EC90,"dengue virus type 2; Dengue virus, Vero C1008, Baseline response 0 %, Hill slope -0.632, Maximum measured 86.584 %, Maximum response 100 %, Minimum measured 48.476 %, R squared 0.311",> 3.12 µM
O=C1Cc2c(cccc2C(=O)Nc2ccc3c(c2)CCNCC3)N1,EC50,Zika virus; Vero C1008,> 50 µM
same,EC90,"Zika virus; Vero C1008, Maximum measured 3.486 %, Minimum measured -0.899 %",> 50 µM
same,EC50,"dengue virus type 2; Dengue virus, Vero C1008",> 50 µM
same,EC90,"dengue virus type 2; Dengue virus, Vero C1008, Maximum measured 144.677 %, Minimum measured 92.434 %",> 50 µM
O=C(Nc1cnc2c(c1)CNC2)c1cc(F)cc2[nH]ncc12,EC50,Zika virus; Vero C1008,> 50 µM
same,EC90,"Zika virus; Vero C1008, Baseline response 0 %, Hill slope 2.313, Maximum measured 10.311 %, Maximum response 100 %, Minimum measured -0.319 %, R squared 0.353",> 50 µM
same,EC50,"dengue virus type 2; Dengue virus, Vero C1008",> 50 µM
same,EC90,"dengue virus type 2; Dengue virus, Vero C1008, Maximum measured 142.482 %, Minimum measured 85.178 %",> 50 µM
O=C(NCC(F)F)[C@H](Nc1cc2c(cc1Br)CNC2)c1cc(Cl)cc(C2CC2)c1,EC50,Zika virus; Vero C1008,0.807 µM
same,EC90,"Zika virus; Vero C1008, Baseline response 0 %, Hill slope 18.882, Maximum measured 131.702 %, Maximum response 100 %, Minimum measured 12.911 %, R squared 0.859",0.907 µM
same,EC50,"dengue virus type 2; Dengue virus, Vero C1008",> 50 µM
same,EC90,"dengue virus type 2; Dengue virus, Vero C1008, Maximum measured 177.59 %, Minimum measured 74.788 %",> 50 µM
O=C(Nc1ccc2c(c1)CN[C@H]2CC1CC1)c1cc(F)cc2[nH]ncc12,EC50,Zika virus; Vero C1008,1.64 µM
same,EC90,"Zika virus; Vero C1008, Baseline response 0 %, Hill slope 24.148, Maximum measured 124.993 %, Maximum response 100 %, Minimum measured 2.983 %, R squared 0.936",1.79 µM
same,EC50,"dengue virus type 2; Dengue virus, Vero C1008",1.03 µM
O=C1Nc2ccc(C(=O)Nc3ccc4c(c3)CNC4)cc2C1=O,EC50,Zika virus; Vero C1008,> 50 µM
same,EC90,"Zika virus; Vero C1008, Baseline response 0 %, Hill slope 1.301, Maximum measured 24.355 %, Maximum response 100 %, Minimum measured -0.531 %, R squared 0.91",> 50 µM
same,EC50,"dengue virus type 2; Dengue virus, Vero C1008",> 50 µM
same,EC90,"dengue virus type 2; Dengue virus, Vero C1008, Maximum measured 138.129 %, Minimum measured 92.792 %",> 50 µM
O=C(Nc1cc(Cl)cc(-c2ccc3[nH]c(C(=O)O)cc3c2)c1)OCc1ccccc1,EC50,Zika virus; Vero C1008,> 25 µM
same,EC90,"Zika virus; Vero C1008, Baseline response 0 %, Hill slope 14.672, Maximum measured 32.342 %, Maximum response 100 %, Minimum measured -3.566 %, R squared 0.926",> 25 µM
same,EC90,"dengue virus type 2; Baseline response 0 %, EC90 CI (lower) 8.977 uM, EC90 CI (upper) 21.139 uM, Hill slope -3.716, Maximum measured 111.991 %, Maximum response 100 %, Minimum measured 0.586 %, R squared 0.931",45 µM
same,EC90,"dengue virus type 2; Baseline response 0 %, Hill slope -1.036, Maximum measured 105.577 %, Maximum response 100 %, Minimum measured 51.847 %, R squared 0.535",> 12.5 µM
same,EC50,"dengue virus type 2; Dengue virus, Vero C1008",24.9 µM
same,EC50,dengue virus type 2; vero c1008,> 12.5 µM
CC(C)(C)OC(=O)N1Cc2ccc(N[C@H](C(=O)O)c3cc(Cl)cc4[nH]ncc34)cc2C1,EC50,Zika virus; Vero C1008,> 50 µM
same,EC90,"Zika virus; Vero C1008, Baseline response 0 %, Hill slope -0.446, Maximum measured 2.879 %, Maximum response 100 %, Minimum measured -1.465 %, R squared 0.442",> 50 µM
same,EC50,"dengue virus type 2; Dengue virus, Vero C1008",> 50 µM
same,EC90,"dengue virus type 2; Dengue virus, Vero C1008, Maximum measured 176.94 %, Minimum measured 116.898 %",> 50 µM
N#CCc1cc(NC(=O)c2cc(F)cc3[nH]ncc23)cc2c1CNC2,EC50,Zika virus; Vero C1008,41.5 µM
same,EC90,"Zika virus; Vero C1008, Baseline response 0 %, Hill slope 1.989, Maximum measured 59.393 %, Maximum response 100 %, Minimum measured -2.191 %, R squared 0.98",> 50 µM
same,EC50,"dengue virus type 2; Dengue virus, Vero C1008",> 50 µM
same,EC90,"dengue virus type 2; Dengue virus, Vero C1008, Maximum measured 146.108 %, Minimum measured 103.208 %",> 50 µM
NCc1ccc(-c2csc3cc(C(=O)Nc4ccc5c(c4)CNC5)ccc23)cc1,EC50,Zika virus; Vero C1008,> 50 µM
same,EC90,"Zika virus; Vero C1008, Maximum measured 6.518 %, Minimum measured 2.745 %",> 50 µM
same,EC50,"dengue virus type 2; Dengue virus, Vero C1008",> 6.25 µM
same,EC90,"dengue virus type 2; Dengue virus, Vero C1008, Baseline response 0 %, Hill slope -0.794, Maximum measured 120.176 %, Maximum response 100 %, Minimum measured 78.099 %, R squared 0.152",> 6.25 µM
O=C(NCC(F)F)[C@H](Nc1cnc2c(c1)CNC2)c1cc(Cl)cc(C2CC2)c1,EC50,Zika virus; Vero C1008,0.828 µM
same,EC90,"Zika virus; Vero C1008, Baseline response 0 %, EC90 CI (lower) 1.299 uM, EC90 CI (upper) 2.383 uM, Hill slope 2.915, Maximum measured 110.454 %, Maximum response 100 %, Minimum measured 12.588 %, R squared 0.958",1.76 µM
same,EC50,"dengue virus type 2; Dengue virus, Vero C1008",> 50 µM
same,EC90,"dengue virus type 2; Dengue virus, Vero C1008, Maximum measured 147.541 %, Minimum measured 99.767 %",> 50 µM
NCc1csc2cc(C(=O)Nc3ccc4c(c3)CNC4)ccc12,EC50,Zika virus; Vero C1008,> 50 µM
same,EC90,"Zika virus; Vero C1008, Baseline response 0 %, Hill slope 0.999, Maximum measured 5.799 %, Maximum response 100 %, Minimum measured -1.302 %, R squared 0.306",> 50 µM
same,EC50,"dengue virus type 2; Dengue virus, Vero C1008",> 50 µM
same,EC90,"dengue virus type 2; Dengue virus, Vero C1008, Maximum measured 124.572 %, Minimum measured 93.265 %",> 50 µM
O=C(Nc1ccc2c(c1)CNC2)c1cccc2c(C3CNC3)n[nH]c12,EC50,Zika virus; Vero C1008,9.06 µM
same,EC90,"Zika virus; Vero C1008, Baseline response 0 %, EC90 CI (lower) 13.229 uM, EC90 CI (upper) 28.268 uM, Hill slope 2.896, Maximum measured 113.87 %, Maximum response 100 %, Minimum measured -0.433 %, R squared 0.955",19.3 µM
same,EC50,"dengue virus type 2; Dengue virus, Vero C1008",> 50 µM
same,EC90,"dengue virus type 2; Dengue virus, Vero C1008, Maximum measured 103.764 %, Minimum measured 75.286 %",> 50 µM
O=C(Nc1ccc2c(c1)CNC2)c1cc(Br)cc2c1nc1n2CCCC1,EC50,Zika virus; Vero C1008,> 50 µM
same,EC90,"Zika virus; Vero C1008, Maximum measured -3.355 %, Minimum measured -6.068 %",> 50 µM
same,EC50,"dengue virus type 2; Dengue virus, Vero C1008",> 50 µM
same,EC90,"dengue virus type 2; Dengue virus, Vero C1008, Maximum measured 143.517 %, Minimum measured 80.126 %",> 50 µM
C[C@H]1C(=O)Nc2ccc(C(=O)Nc3ccc4c(c3)CNC4)cc21,EC50,Zika virus; Vero C1008,> 50 µM
same,EC90,"Zika virus; Vero C1008, Maximum measured 0.465 %, Minimum measured -1.56 %",> 50 µM
same,EC50,"dengue virus type 2; Dengue virus, Vero C1008",> 50 µM
same,EC90,"dengue virus type 2; Dengue virus, Vero C1008, Maximum measured 179.475 %, Minimum measured 83.637 %",> 50 µM

# Reference: ChEMBL document CHEMBL5661943, “ASAP - In vitro antiviral effect” (2024)
